How the values were obtained:
[1] = test system: GABAA receptors in hippocampal neurons; assay: Whole-cell patch clamp in hippocampal neurons (HN); type: cell-based, rat; conditions: for increase of GABA-evoked currents: 500 nM modulator co-applied with 10 μM GABA; for increase of MG-evoked currents: 500 nM modulator co-applied with 10 μM MG
Method: (§1) Reagents: All reagents were obtained from Sigma-Aldrich.
Neurons were maintained in neurobasal medium with B27 supplement and glutamax in a humidified atmosphere with 5% CO2 at 37° C.
(§2) Filter and sampling frequencies were 5 and 25 kHz, respectively, for voltage-clamp experiments and 1 and 10 kHz, respectively, for current-clamp recording. Experiments were performed at 32° C. using a feedback-controlled heated perfusion system (Warner Instruments). Vm, ligand-gated currents, and potassium channel currents were studied in a bath solution containing 1 mM CaCl2, 1 mM MgCl2, 4 mM KCl, 140 mM NaCl, 5 mM glucose, and 10 mM HEPES (pH 7.4). […] Electrodes were coated with Sigmacote (Sigma) prior to use.
(§3) Ligand-gated currents: Ligand-gated currents were studied in voltage-clamp mode by application of reagents to cells held at −50 mV.

[2] = test system: GABAA receptors in macropatches excised from CGN; assay: Macropatch recording from CGN; type: cell-based, rat; conditions: 10 μM; SR 10 μM at the extracellular face (pipette)
Method: Macropatch recording: Macropatch recording was performed with 1.5-2 MΩ electrodes filled with bath solution. The inside of excised patches was perfused with electrode solution containing the indicated reagents. SR was added to the electrode where indicated.

[3] = test system: anxiety-like behavior in C57BL6/J mice; assay: OFT after bilateral microinjection into the basolateral amygdala (BLA); conditions: midazolam 4 mM, 0.5 ul bilateral into BLA, over 30 m
[4] = test system: GABAA receptors in cerebellar granule neurons; assay: Whole-cell patch clamp in cerebellar granule neurons (CGN); type: cell-based, rat
Method: as §1
Culture of rat CGN: CGN were cultured from mixed-sex Sprague-Dawley rats. Tissue was dissected from 6- to 8-day-old rats. Cells were suspended in minimal essential medium supplemented with 10% fetal calf serum, 26 mM glucose, 19 mM KCl, 2 mM 1-glutamine, and penicillin/streptomycin (50 IU/ml and 50 μg/ml). Cells were seeded on poly-1-lysine-coated coverslips and incubated in a humidified atmosphere containing 5% CO2 at 37° C. After 48 hours, the culture medium was replaced with minimal essential medium supplemented with 10% horse serum, 26 mM glucose, 19 mM KCl, 2 mM 1-glutamine, penicillin/streptomycin (50 IU/ml and 50 μg/ml), and 80 μM 1-fluorodeoxyuridine. Culture medium was exchanged every three days. All recordings were made from cells between days 6 to 9 in culture.
as §2, §3

[5] = test system: anxiety-like behavior and locomotion in mice; assay: Open field (OF) test; type: in vivo, mouse; conditions: B6 mice
Method: OF test: Mice were placed into the center of the OF, and activity was monitored for five to ten minutes. The apparatus was illuminated to approximately 40 lux. Data were collected and processed using the manufacturer's software (AccuScan Instruments).
OF test: Ten minutes post-injection, mice were placed into the center of the OF. The apparatus was illuminated to approximately 40 lux. Behavior was measured as described above.
OF test replication studies: Ten to twenty minutes post-injection, mice were tested in the OF for five to ten minutes. In some experiments, behavior was scored as described above. In other experiments, mice were tested in the OF, and behavior was automatically scored by the Noldus Ethovision System. For mice tested in the Noldus system, the apparatus was illuminated to approximately 1,000 lux.
Chronic MG administration: For five days, mice were injected twice daily with vehicle or MG (4 mg/kg). Twelve hours after the final injection, mice were tested in the OF as described above.
Pure MG: Pure MG was obtained from Dr. John Termini at the City of Hope, Duarte, Calif. It was administered at the indicated doses by i.p. injection. Mice were tested as described above.
OF test: Two hours post-injection, mice were tested in the OF test as described above. The center size was 10×10 cm. The apparatus was illuminated to approximately 40 lux.

[6] = test system: motor coordination in mice; assay: Balance beam test; type: in vivo, mouse; conditions: 300 mg/kg i.p., B6 mice
Method: The balance beam was 97 cm×9.5 mm and elevated to 46 cm. Mice were tested on the balance beam, and missteps were counted.
Balance beam: The balance beam test was performed as described above. Ten minutes post-injection, mice were tested on the balance beam, and missteps were recorded.

mice = assay: Hypothermia (rectal temperature); type: in vivo, mouse; conditions: 300 mg/kg i.p., B6 mice
Method: Hypothermia: Thirty minutes post-injection, rectal temperature was measured with a digital thermometer.

[7] = test system: depression-like behavior in mice; assay: Chronic forced swim test (cFST), osmotic minipump; type: in vivo, mouse; conditions: fluoxetine 18 mg/kg/day, 14 days
Method: To fully assess the therapeutic potential of GLO1 inhibitors, it is necessary to utilize behavioral models sensitive to chronic administration. These models are highly informative as the therapeutic onset of antidepressant action mimics clinical onset in humans. pBBG was administered by osmotic minipumps (Alzet) for 14 days at various doses (0, 5, 10, 15, 30 and 60 mg/kg/day) to establish a dose response curve. Osmotic minipumps are ideal for chronic treatment as they release a constant volume at a very slow rate minimizing the stress of multiple injections.

locomotion in Cd-1 mice = assay: Open field test after i.p. glyceraldehyde; type: in vivo, mouse; conditions: GA i.p., tested 10 min after injection
Method: GA is rapidly converted into MG. Cd-1 mice (Charles River, Portage Mich.) were treated i.p. With vehicle (0.9% NaCl) or GA at the indicated doses. Ten minutes after injection, mice were tested in the open field (OF) test (locomotor chambers). Behavioral data were collected at 5 and 10 minutes. Because vehicle-treated mice differed in total distance traveled between the testing days, the data were not combined into a single analysis. Statistical analyses included repeated-measures anova for the factor treatment. The repeated measures were total distance (at 5 and 10 min) and % center time (at 5 and 10 min). For comparison of vehicle and GA at individual time points, a t-test was used. […] This would be an additional means of obtaining desirable clinical effects, including anxiolytic, antidepressant, anti-epileptic, and induction of sleep.

Cc1ccc(-c2nc3ccc(C)cn3c2CC(=O)N(C)C)cc1 [zolpidem]
increase of GABA-evoked currents [1]: approximately 17%
increase of MG-evoked currents [1]: approximately 15%

NCCCC(=O)O [GABA, gamma-aminobutyric acid, reference compound]
current on application to the intracellular face of macropatches [2]: did not elicit a current

Cc1ncc2n1-c1ccc(Cl)cc1C(c1ccccc1F)=NC2 [midazolam]
increase of GABA-evoked currents [1]: approximately 27%
increase of MG-evoked currents [1]: approximately 40%
center duration in the OFT [3]: increased center duration in the OFT

Br.COc1ccc(-c2ccc(=N)n(CCCC(=O)O)n2)cc1 [SR, reference compound]
inhibition of Vm changes induced by MG and GABA ([4]; 10 μM SR, 10 μM MG or GABA): > 95%
inhibition of current-density changes induced by MG and GABA ([4]; 10 μM SR, 10 μM MG or GABA): > 95%
current on application to the intracellular face of macropatches [2]: this current was inhibited when SR was applied to the extracellular face

CC(=O)C=O [pure MG, methylglyoxal]
time in the center of the OF ([5]; pure MG 5 mg/kg, 10 min later): increased time in the center of the OF
total distance traveled in the OF ([5]; pure MG 300 mg/kg): reduced total distance traveled in the OF
footslips on the balance beam (ataxia) [6]: increased footslips on the balance beam
inward currents in CGN ([4]; 10 μM): evoked inward currents in CGN
hypothermia (mice): caused hypothermia

CNCCC(Oc1ccc(C(F)(F)F)cc1)c1ccccc1 (stereo not drawn) [fluoxetine]
depression-like behavior in the cFST [7]: reduces depression-like behavior in the forced swim test

CN1C(=O)CN=C(c2ccccc2)c2cc(Cl)ccc21 [Diazepam, diazepam]
increase of GABA-evoked currents [1]: approximately 45%
increase of MG-evoked currents [1]: approximately 60%

O=CC(O)CO (stereo not drawn) [GA, glyceraldehyde]
locomotor effect in the open field (locomotion in Cd-1 mice): has locomotor depressant effects

From patent publication US11235020B2, “Methods and compositions for inhibiting glyoxalase 1 (GLO1)” (priority 2013, dated 2022)
